Measurements taken from publication PMC11693508, “Pharmacokinetics, bioavailability, and tissue distribution of MRTX1133 in rats using UHPLC-MS/MS” (Frontiers in Pharmacology, 2024).
Where two headings read alike, the source gives them in different places.

Experiment: Pharmacokinetic study in rats after intragastric and intravenous administration (plasma, UHPLC-MS/MS)
Type: in vivo, Sprague-Dawley rats
Settings: for Tmax: po, 25 mg/kg; for AUC(0-t): n = 10; for MRT last: read-out: MRT(0-t)
Method: The pharmacokinetic study was performed using oral solutions of MRTX1133 in 5% carboxymethyl-cellulose sodium (CMC-Na) at a concentration of 2.5 mg mL^-1 (the dose was 25 mg kg^-1 and 10 mL kg^-1). The intravenous solution was prepared at a concentration of 5 mg mL^-1 in polyethylene glycol 400 and dimethyl sulfoxide (8%). Twenty rats were randomly divided into two groups (ten rats each group), the rats in one group were given MRTX1133 by intravenous administration at 5 mg kg^-1 and the other group by intragastric administration at 25 mg kg^-1. Rats were slightly anesthetized with diethyl ether, blood samples were collected (approximately 150 µL) from the suborbital vein, and placed into heparinized tubes at 0.17 h, 0.33 h, 0.5h, 0.75 h, 1 h, 1.5 h, 2 h, 3 h, 4 h, 6 h, 8 h, 10 h, and 24 h after treatment. The rats were treated with saline at the same volume by gavage and used as control. Blood samples were centrifuged at 20,800 g for 10 min (at 4°C) and stored at - 80°C.
The DAS 3.2 software package (edited by the Chinese Mathematical Pharmacology Society) was used for the pharmacokinetic data analysis and the non-compartmental model was applied. The oral bioavailability (F) of MRTX1133 was measured by comparing each area under the curve (AUC) 0-t value after intragastric (i.g.) and intravenous (i.v.) administration according to the equation: F = (AUC i. g./Dose i. g.)/(AUC i. v./Dose i. v.).

[1] = Sprague-Dawley, rat plasma, intravenous 5 mg/kg
[2] = Sprague-Dawley, rat plasma, oral 25 mg/kg

A bioavailability (Sprague-Dawley, plasma, oral, rat, AUC(0-t) i.g. 25 mg/kg vs i.v. 5 mg/kg, read-out: F (oral bioavailability)) of 2.92%, a CL/F (Sprague-Dawley, plasma, rat, oral 25 mg/kg, read-out: CL/F (converted)) of 3320 mL/min/kg and a Tmax (Sprague-Dawley, rat, plasma, rat plasma, oral 25 mg/kg, read-out: Tmax) of 36 ± 7.8 min were found for `C#Cc1c(F)ccc2cc(O)cc(-c3ncc4c(N5CC6CCC(C5)N6)nc(OC[C@@]56CCCN5C[C@H](F)C6)nc4c3F)c12` [MRTX1133] in this work. The Tmax (Sprague-Dawley, rat, plasma, rat plasma, oral 25 mg/kg, read-out: time of peak plasma concentration (converted)) was 45 min, the half-life [1] was 173 ± 64.8 min and the AUC(0-t) [1] was 928 ± 192 ng·h/mL. The MRT last [1] was 1.34 ± 0.6 h, the Cmax [2] was 130 ± 25.2 ng/mL and the half-life [2] was 67.2 ± 27.6 min. For the same molecule, the MRT last [2] was 1.25 ± 0.18 h, the AUC(0-t) (Sprague-Dawley, rat plasma, oral (intragastric) 25 mg/kg) was 136 ± 46.5 ng·h/mL and the “plasma concentration 8 h after intravenous administration” value (rat plasma, intravenous 5 mg/kg, 8 h) was “bleow the limit of quantitation”. For the same molecule, the “plasma concentration 6 h after oral administration” value (rat plasma, oral 25 mg/kg, 6 h) was “bleow the limit of quantitation”, the CL/F (rat, intravenous 5 mg/kg) was 85.7 ± 26.3 mL/min/kg and the V/F (rat, intravenous 5 mg/kg) was 22.83 ± 11.67 L/kg. The V/F (rat, oral 25 mg/kg) was 318.99 ± 157.43 L/kg.
